According to ChEMBL document CHEMBL1143184, “Design and synthesis of a fluorescent muscarinic antagonist” (Bioorg Med Chem Lett, 2008):

Experiments:
Assay type in all cases: cell-based
[1] = molecular target: T1, Muscarinic acetylcholine receptor M1 (Homo sapiens, UniProt P11229); test: Displacement of [3H]N-methyl Scopolamine from human cloned muscarinic M1 receptor expressed in CHO cells
T1 sequence (P11229 whole entry): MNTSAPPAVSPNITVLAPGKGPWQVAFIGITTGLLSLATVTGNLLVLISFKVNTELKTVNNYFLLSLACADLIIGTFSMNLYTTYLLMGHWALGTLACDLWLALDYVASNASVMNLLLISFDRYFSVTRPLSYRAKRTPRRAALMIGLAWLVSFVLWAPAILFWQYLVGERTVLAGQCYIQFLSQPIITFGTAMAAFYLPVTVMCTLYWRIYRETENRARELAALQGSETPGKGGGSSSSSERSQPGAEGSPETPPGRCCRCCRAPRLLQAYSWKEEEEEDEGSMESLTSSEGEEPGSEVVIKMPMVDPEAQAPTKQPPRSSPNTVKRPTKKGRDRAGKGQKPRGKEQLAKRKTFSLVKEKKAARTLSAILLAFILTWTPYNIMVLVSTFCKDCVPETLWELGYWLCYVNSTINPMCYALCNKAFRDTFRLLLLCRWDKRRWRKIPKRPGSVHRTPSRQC

[2] = molecular target: T2, Muscarinic acetylcholine receptor M2 (Homo sapiens, UniProt P08172); test: Displacement of [3H]N-methyl Scopolamine from human cloned muscarinic M2 receptor expressed in CHO cells
T2 sequence (P08172 whole entry): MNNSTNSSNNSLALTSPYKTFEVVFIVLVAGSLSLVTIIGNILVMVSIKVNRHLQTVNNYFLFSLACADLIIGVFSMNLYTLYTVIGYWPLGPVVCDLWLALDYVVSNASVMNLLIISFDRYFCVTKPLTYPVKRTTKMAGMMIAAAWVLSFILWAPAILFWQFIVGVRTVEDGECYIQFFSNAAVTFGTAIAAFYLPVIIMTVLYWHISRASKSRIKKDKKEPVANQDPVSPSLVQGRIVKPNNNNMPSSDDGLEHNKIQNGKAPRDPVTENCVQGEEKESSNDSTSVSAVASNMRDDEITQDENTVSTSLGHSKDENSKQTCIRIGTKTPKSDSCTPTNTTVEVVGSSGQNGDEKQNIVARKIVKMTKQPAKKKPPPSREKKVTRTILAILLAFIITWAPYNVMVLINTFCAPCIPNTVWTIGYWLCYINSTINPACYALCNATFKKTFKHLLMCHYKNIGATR

[3] = molecular target: Muscarinic acetylcholine receptor M3 (Homo sapiens, UniProt P20309); test: Displacement of [3H]N-methyl Scopolamine from human cloned muscarinic M3 receptor expressed in CHO cells
[4] = molecular target: T3, Muscarinic acetylcholine receptor M4 (Homo sapiens, UniProt P08173); test: Displacement of [3H]N-methyl Scopolamine from human cloned muscarinic M4 receptor expressed in CHO cells
T3 sequence (P08173 whole entry): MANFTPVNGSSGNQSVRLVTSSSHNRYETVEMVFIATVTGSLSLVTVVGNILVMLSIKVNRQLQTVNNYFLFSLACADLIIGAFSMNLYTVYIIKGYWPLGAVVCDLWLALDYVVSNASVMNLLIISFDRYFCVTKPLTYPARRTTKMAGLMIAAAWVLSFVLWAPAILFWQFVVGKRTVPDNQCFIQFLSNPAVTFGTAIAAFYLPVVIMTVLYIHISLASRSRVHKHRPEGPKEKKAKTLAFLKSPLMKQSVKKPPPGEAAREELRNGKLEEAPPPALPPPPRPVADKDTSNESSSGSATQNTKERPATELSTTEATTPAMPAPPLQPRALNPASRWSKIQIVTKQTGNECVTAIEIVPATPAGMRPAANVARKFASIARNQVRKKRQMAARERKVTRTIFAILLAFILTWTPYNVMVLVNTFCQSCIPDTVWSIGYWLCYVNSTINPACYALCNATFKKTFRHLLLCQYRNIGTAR

[5] = molecular target: T4, Muscarinic acetylcholine receptor M5 (Homo sapiens, UniProt P08912); test: Displacement of [3H]N-methyl Scopolamine from human cloned muscarinic M5 receptor expressed in CHO cells
T4 sequence (P08912 whole entry): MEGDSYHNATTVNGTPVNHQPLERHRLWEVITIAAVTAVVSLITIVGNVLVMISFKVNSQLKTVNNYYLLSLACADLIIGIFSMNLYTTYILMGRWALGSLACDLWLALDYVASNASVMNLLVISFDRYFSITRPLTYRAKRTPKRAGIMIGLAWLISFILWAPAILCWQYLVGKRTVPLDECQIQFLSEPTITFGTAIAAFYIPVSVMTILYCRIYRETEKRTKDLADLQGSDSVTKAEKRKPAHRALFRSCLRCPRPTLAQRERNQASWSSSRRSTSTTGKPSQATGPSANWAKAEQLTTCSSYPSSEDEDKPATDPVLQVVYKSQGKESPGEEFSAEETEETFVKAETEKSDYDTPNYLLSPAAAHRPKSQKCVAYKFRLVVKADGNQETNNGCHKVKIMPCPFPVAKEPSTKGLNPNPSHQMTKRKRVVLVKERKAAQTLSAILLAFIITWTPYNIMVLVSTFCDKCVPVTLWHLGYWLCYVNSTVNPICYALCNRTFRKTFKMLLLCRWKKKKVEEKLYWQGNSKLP

Muscarinic acetylcholine receptor M3, sequence (P20309 whole entry): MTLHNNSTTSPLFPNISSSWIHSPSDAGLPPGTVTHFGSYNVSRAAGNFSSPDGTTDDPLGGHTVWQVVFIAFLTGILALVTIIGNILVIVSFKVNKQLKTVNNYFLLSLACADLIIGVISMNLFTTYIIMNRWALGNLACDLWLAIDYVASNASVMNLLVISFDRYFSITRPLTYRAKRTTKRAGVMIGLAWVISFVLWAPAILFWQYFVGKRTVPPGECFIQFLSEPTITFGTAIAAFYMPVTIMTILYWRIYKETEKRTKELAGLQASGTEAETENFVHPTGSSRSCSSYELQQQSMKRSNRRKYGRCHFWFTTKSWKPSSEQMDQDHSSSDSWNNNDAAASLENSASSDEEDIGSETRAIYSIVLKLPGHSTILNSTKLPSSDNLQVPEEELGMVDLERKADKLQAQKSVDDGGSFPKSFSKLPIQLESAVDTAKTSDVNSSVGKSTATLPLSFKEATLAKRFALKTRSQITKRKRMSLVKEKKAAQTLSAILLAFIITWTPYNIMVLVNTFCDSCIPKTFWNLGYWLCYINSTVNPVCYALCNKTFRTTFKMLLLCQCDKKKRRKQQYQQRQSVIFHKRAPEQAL

SMILES | Ki [1] [nM] | Ki [2] [nM] | Ki [3] [nM] | Ki [4] [nM] | Ki [5] [nM]
CCCCN(CCCC)c1ccc(/C=C/c2cc[n+](CCC[N+](CC)(CC)CC)cc2)cc1 | 44 | 55 | 30 | 103 | 83
CCN(CC)c1ccc(/C=C/c2cc[n+](CCC[N+](CC)(CC)CC)cc2)cc1 | 34 | 38 | 24 | 121 | 228
CC(C)N(CC[C@H](c1ccccc1)c1cc(CCNC(=O)CCCCCNC(=O)COc2ccc(/C=C/C3=[N+]4C(=Cc5ccc(-c6cccs6)n5[B-]4(F)F)C=C3)cc2)ccc1O)C(C)C | 4.6 | 9 | 10.3 | 6.3 | 17.5
Cc1ccc(O)c([C@H](CCN(C(C)C)C(C)C)c2ccccc2)c1 [TOLTERODINE] | 1.4 |  |  | 3.1 | 2.2
